The test system of one data set is HeLa. Briefly: Neutral red uptake assay, HeLa. Format: cell-based. As to conditions: Homo sapiens, 72 h exposure. Here is the method:
(§1) L-929 (mouse C3H/An connective tissue), Caco-2 (human colon adenocarcinoma), A172 (human glioblastoma), AGS (human gastric adenocarcinoma), HepaRG (human hepatoma cell), and HeLa (human cervix epithelioid carcinoma) cell lines were obtained from the European Collection of Authenticated Cell Cultures (ECACC) and provided by Sigma Aldrich/Merck (Munich, Germany). All cell lines were cultured in complete mediums prepared according to the ECACC recommendations and incubated in a humidified atmosphere with 5% CO2 at 37 °C. Neutral red uptake assay was performed according to the protocol. 24 h before treatment cells were seeded in 96-well plates in 1 × 10^5 cell/mL of complete medium. After incubation and attachment of cells, the medium was discarded, and test substances dissolved in the fresh medium were added to wells. Samples were tested after 24, 48, and 72 h incubation. A neutral red working solution (40 µg/mL) was prepared and incubated overnight. […] Absorption was measured using a Thermo Scientific™ (Waltham, MA, USA) Multiskan™ GO microplate spectrophotometer at 540 nm. […] Viability was calculated according to the following formula:(1) % Viability=ODtest substance−ODblind/ODnegative control−ODblind×100 Neutral red uptake assay was performed in quadruple (n = 4). Results were calculated to mean ± standard deviation (SD) using Microsoft Office Excel 2007. […]

The test system of the next data set is AGS cell line. As to the kind of experiment: Annexin V/PI staining, flow cytometry. The format is cell-based, human. As to conditions: 24 h incubation. Here is the method: A quantitative analysis of apoptosis was performed by flow cytometry with Alexa Fluor 488 annexin V and PI staining (Thermo Scientific Waltham, MA, USA). Briefly, 3 × 10^5 cells were seeded in 6-well plates. After overnight incubation, the tested compound was added to wells in 5 × IC50 concentration (250 µM). Cells were incubated and tested after 6, 12, 18, and 24 h, according to the manufacturer’s protocol. After incubation, cells were harvested, washed with PBS, and resuspended in 1× binding buffer to a final concentration of 1–5 × 10^6 cell/mL. Then 5 µL of Alexa Fluor 488-annexin V was added to 100 µL of cell suspension and incubated in the dark for 15 min. After incubation, the dye was removed, and cells were suspended in 1 mL of binding buffer. Directly before analysis, cells were incubated with 1 µL PI for 2 min and analyzed by flow cytometry (using CyFlow® Space flow cytometer and FloMax software).
In general terms: Flow cytometry measures light scatter and fluorescence of single cells or particles in a stream.

The nature of data set [1]: Neutral red uptake assay, L-929 cell line (primary screening). The following applies: mouse, L-929 cells, p < 0,05. Format: cell-based, mouse. Here is the method:
L-929 (mouse C3H/An connective tissue), Caco-2 (human colon adenocarcinoma), A172 (human glioblastoma), AGS (human gastric adenocarcinoma), HepaRG (human hepatoma cell), and HeLa (human cervix epithelioid carcinoma) cell lines were obtained from the European Collection of Authenticated Cell Cultures (ECACC) and provided by Sigma Aldrich/Merck (Munich, Germany). All cell lines were cultured in complete mediums prepared according to the ECACC recommendations and incubated in a humidified atmosphere with 5% CO2 at 37 °C. Neutral red uptake assay was performed according to the protocol. 24 h before treatment cells were seeded in 96-well plates in 1 × 10^5 cell/mL of complete medium. After incubation and attachment of cells, the medium was discarded, and test substances dissolved in the fresh medium were added to wells. Samples were tested after 24, 48, and 72 h incubation. A neutral red working solution (40 µg/mL) was prepared and incubated overnight. Immediately before use, it was centrifuged to remove any dye crystals. The medium from wells was aspirated, and 100 µL of neutral red was added to plates and incubated for at least 2 h in 37 °C and 5% CO2 in a humidified atmosphere. To inspect the absorption of neutral red to the lysosomes, microscope visualizations were performed. After incubation, cells were washed with PBS, and destain solution containing ethanol, deionized water, and glacial acetic acid (50:49:1) was added. Plates were shaken rapidly on a horizontal shaker at 37 °C. Absorption was measured using a Thermo Scientific™ (Waltham, MA, USA) Multiskan™ GO microplate spectrophotometer at 540 nm. The negative control was a medium with 1% DMSO, and the positive control was 1 µM staurosporine. Viability was calculated according to the following formula:(1) % Viability=ODtest substance−ODblind/ODnegative control−ODblind×100 Neutral red uptake assay was performed in quadruple (n = 4). Results were calculated to mean ± standard deviation (SD) using Microsoft Office Excel 2007. The viability in negative control was compared to 100%. Statistical analyses were performed using the GraphPad Prism 8.3 for Windows (GraphPad Software, La Jolla, CA, USA, www.graphpad.com). For IC50 results, non-linear regression analyses were performed, and a sigmoidal dose-response curve (variable slope) was fitted. Differences between groups and control were tested using an ANOVA test followed by Dunnett’s post hoc analysis. The significance was set at p ≤ 0.05.

Data set [2] has as its system Enterococcus faecalis ATCC 29212. As to the kind of experiment: Antimicrobial microdilution / modified Richards method. The following applies: range tested 1024 to 1 ug/mL. The format is cell-based. A general note: In broth dilution the organism is exposed to a series of concentrations in liquid medium.
A further data set concerns HepaRG. As to the kind of experiment: Neutral red uptake assay, HepaRG. The format is cell-based. The following applies: Homo sapiens, 72 h exposure. Here is the method:
as §1

[3] abbreviates: Enterococcus faecalis ATCC 29212.

Values after ≈ are worked out from the molar mass of the structure shown. Like-named read-outs stand apart in the source and are kept apart here.

Experimental findings from paper PMC8071423, “A New Pyrimidine Schiff Base with Selective Activities against Enterococcus faecalis and Gastric Adenocarcinoma” (Molecules, 2021) are described below.

For orientation: IC50 means the concentration needed to halve the response being measured. A lower IC50 goes with inhibition by little substance. In general, MBC refers to the smallest concentration meeting the test's criterion for killing. Usually MIC stands for the lowest concentration that inhibits growth of the organism.

Turning to `CCOc1ccc(N=Cc2c(C)nc(-c3ccccc3)nc2Nc2ccc(F)cc2)cc1` [Compound 3, 5-[(4-ethoxyphenyl)imino]methyl-N-(4-fluorophenyl)-6-methyl-2-phenylpyrimidin-4-amine], the IC50 came out at 355 µM in the data set with HeLa and 313 µM in the data set with HepaRG. Also, in the data set with AGS cell line (250 µM, control 0.71%), the “necrotic cells (stained with PI only)” value is reported as 2.22%. Further, the “late apoptotic cells (double-stained)” value in the data set with AGS cell line (250 µM, control 2.48%) came out at 21.58%. Besides, in the data set with AGS cell line (250 µM, control 3.24%), the “early apoptotic cells (annexin V stained)” value amounted to 16.18%. In addition, the viability at 250 µM in the data set with AGS cell line (Homo sapiens, control 93.57%, read-out: viable cells (unstained)) came to 60%; in data set [1] (L-929, 250 µM), 115%. Besides, the viability at 500 µM in data set [1] (L-929, 500 µM) was determined as 111%. The viability at 1000 µM in data set [1] (L-929, 1000 µM) amounted to 115%. In addition, the MBC in data set [2] (setting [3]) was determined as 32 µg/mL (≈ 75 µM); in data set [2] (Enterococcus faecalis, ATCC29212, Enterococcus faecalis ATCC 29212, read-out: MBC), 16 µg/mL (≈ 37.5 µM). Moreover, the MIC in data set [2] (setting [3]) came to 16 µg/mL (≈ 37.5 µM); in data set [2] (Enterococcus faecalis, ATCC29212, Enterococcus faecalis ATCC 29212, read-out: MIC), 32 µg/mL (≈ 75 µM).
